# Experimental data taken from PMC9950431, “A bivalent remipede toxin promotes calcium release via ryanodine receptor activation” (Nature Communications, 2023).
# Entries after “also recorded” stand apart in the source; their conditions may differ.
# What was measured:
# ryanodine receptor [1] = molecular target: T1, ryanodine receptor (Oryctolagus cuniculus, UniProt P11716); test: Single channel recording, washout (Woearly, Wolate) after Xt3a, sheet "Figure 3B" (RyR isoform not given); assay type: biochemical
# T1 construct: skeletal SR vesicles were isolated from the back and leg muscles of mature female New Zealand white rabbits; from tissue; host or cells: rabbit back and leg skeletal muscle, sarcoplasmic reticulum vesicles
# T1 sequence (P11716 whole entry, canonical isoform): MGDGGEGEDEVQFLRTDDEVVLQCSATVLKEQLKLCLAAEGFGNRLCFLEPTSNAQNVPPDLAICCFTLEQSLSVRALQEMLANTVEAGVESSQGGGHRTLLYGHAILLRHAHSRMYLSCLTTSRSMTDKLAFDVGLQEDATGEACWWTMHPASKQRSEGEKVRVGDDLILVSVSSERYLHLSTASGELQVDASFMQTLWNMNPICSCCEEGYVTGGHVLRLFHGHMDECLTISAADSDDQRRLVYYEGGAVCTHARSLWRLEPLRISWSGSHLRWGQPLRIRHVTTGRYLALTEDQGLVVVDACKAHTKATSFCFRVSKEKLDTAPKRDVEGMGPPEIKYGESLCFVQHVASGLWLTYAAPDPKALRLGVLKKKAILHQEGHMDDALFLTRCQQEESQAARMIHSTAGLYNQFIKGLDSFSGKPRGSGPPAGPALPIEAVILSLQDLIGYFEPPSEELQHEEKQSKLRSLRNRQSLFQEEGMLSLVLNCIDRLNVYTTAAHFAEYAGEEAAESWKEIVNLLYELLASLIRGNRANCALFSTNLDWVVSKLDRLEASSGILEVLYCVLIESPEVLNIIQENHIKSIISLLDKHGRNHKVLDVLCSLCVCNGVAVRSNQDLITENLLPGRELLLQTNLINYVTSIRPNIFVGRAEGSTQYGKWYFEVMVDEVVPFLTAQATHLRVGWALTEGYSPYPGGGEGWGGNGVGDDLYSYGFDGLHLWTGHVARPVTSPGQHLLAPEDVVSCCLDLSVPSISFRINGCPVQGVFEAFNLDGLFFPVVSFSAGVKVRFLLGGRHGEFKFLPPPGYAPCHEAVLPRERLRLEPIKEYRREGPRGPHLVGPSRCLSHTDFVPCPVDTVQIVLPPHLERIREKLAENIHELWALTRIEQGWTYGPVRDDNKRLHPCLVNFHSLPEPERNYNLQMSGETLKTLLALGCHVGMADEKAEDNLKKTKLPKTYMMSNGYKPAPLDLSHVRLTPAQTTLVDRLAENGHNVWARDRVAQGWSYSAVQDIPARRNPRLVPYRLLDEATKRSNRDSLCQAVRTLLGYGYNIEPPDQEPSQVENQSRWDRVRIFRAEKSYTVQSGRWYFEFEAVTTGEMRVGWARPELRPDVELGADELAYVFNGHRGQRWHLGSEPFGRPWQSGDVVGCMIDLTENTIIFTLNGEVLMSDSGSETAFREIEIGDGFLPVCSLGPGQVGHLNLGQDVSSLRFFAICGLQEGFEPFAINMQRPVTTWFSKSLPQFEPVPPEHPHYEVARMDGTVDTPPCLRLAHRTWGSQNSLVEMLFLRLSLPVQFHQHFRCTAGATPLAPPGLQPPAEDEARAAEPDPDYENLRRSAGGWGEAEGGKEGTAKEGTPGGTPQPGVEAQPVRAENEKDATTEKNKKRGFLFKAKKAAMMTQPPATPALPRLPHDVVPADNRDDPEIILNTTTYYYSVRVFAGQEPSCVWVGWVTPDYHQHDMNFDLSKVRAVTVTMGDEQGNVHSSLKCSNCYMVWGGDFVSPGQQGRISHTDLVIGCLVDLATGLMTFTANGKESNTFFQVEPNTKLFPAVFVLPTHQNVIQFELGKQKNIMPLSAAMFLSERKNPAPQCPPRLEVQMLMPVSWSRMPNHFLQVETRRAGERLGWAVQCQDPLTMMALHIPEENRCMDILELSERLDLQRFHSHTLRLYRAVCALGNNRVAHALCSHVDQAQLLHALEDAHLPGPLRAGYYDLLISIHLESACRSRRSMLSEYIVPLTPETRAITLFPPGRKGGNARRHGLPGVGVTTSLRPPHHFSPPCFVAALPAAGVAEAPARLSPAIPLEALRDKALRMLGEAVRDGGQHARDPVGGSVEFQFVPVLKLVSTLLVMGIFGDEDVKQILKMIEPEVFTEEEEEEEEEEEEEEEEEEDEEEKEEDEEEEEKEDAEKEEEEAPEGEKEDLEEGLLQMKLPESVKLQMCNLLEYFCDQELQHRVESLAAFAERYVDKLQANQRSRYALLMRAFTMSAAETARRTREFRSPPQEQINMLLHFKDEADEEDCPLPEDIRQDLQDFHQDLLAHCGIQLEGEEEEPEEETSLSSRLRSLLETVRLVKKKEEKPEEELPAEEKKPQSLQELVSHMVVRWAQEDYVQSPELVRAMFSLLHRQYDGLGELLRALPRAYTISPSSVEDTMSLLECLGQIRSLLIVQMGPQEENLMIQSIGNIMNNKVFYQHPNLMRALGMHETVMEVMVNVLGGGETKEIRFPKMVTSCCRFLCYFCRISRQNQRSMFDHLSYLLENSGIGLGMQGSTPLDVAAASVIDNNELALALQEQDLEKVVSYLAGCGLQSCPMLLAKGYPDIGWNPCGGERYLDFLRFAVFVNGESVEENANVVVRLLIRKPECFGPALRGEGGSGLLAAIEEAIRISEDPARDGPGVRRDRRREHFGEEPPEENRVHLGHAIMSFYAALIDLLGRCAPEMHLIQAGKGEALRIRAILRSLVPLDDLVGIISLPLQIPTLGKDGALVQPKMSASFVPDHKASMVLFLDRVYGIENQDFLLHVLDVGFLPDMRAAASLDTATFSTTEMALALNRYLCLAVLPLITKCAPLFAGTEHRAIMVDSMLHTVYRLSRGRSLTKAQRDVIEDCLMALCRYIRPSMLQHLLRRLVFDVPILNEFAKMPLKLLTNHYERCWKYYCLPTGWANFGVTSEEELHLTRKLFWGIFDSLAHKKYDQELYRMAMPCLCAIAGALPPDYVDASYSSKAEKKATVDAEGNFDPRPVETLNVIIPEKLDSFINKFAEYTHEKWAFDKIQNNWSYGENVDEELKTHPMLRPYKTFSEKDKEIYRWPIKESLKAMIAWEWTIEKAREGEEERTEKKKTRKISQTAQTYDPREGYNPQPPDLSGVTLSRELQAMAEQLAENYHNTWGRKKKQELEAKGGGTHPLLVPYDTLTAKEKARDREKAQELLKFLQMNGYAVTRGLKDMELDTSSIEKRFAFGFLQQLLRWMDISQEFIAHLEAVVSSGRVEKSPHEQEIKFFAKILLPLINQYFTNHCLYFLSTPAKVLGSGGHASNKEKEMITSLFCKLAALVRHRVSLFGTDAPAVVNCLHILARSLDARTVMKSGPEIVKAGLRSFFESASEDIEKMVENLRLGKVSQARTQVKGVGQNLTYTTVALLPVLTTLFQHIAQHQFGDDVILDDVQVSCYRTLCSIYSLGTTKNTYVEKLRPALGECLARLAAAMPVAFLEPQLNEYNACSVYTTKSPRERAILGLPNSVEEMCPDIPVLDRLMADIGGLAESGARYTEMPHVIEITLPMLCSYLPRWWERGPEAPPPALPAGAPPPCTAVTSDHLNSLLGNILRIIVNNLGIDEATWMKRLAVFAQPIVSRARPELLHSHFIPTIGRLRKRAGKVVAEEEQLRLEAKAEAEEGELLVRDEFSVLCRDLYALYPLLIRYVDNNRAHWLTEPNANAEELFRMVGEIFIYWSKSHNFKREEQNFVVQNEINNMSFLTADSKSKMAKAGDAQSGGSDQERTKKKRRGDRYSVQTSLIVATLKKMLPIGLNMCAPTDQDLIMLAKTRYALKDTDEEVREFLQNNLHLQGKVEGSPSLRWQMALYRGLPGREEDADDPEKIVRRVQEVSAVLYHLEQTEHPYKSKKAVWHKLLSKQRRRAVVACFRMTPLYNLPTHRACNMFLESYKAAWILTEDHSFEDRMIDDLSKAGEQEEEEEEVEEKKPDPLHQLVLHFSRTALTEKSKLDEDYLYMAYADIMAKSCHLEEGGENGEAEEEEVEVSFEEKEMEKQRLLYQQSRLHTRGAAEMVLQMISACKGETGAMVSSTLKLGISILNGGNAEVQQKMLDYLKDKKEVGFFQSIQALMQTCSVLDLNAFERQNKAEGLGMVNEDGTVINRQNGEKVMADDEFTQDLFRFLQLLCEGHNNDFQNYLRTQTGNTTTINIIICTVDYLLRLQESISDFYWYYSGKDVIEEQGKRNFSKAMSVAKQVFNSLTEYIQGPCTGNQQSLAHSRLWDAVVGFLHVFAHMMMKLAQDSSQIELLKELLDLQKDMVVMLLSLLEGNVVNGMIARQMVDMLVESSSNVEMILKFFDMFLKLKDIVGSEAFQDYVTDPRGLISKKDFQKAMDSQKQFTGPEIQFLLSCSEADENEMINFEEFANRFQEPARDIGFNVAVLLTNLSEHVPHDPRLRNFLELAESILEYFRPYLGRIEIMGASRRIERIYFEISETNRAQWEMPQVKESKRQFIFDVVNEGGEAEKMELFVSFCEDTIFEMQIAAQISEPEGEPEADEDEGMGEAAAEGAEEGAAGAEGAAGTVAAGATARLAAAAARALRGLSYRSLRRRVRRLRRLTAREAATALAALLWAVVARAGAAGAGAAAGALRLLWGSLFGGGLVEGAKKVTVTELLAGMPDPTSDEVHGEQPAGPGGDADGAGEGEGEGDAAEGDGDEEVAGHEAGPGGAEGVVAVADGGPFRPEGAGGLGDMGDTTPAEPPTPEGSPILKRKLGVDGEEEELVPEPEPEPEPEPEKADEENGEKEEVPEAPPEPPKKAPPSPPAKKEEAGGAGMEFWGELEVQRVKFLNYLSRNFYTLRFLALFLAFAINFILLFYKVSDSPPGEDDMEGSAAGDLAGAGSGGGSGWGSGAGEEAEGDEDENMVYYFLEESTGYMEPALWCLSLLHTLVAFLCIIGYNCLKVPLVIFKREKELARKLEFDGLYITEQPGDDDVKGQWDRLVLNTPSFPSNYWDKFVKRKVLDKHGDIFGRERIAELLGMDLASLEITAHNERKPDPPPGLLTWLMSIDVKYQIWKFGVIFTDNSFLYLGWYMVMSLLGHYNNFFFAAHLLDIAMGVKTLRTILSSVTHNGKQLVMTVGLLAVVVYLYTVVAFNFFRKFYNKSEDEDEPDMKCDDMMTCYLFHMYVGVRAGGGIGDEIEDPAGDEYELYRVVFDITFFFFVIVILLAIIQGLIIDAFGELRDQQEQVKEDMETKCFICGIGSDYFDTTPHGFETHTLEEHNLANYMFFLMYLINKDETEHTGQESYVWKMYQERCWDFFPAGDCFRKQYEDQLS
# Description: Supplement 41467_2023_36579_MOESM6_ESM.xlsx, sheet "Figure 3B" | column: Woearly; Wolate
# [2] = system: SH-SY5Y neuroblastoma cells; test: FLIPR intracellular Ca2+ assay, SH-SY5Y cells (direct response); assay type: cell-based, human; settings: Xt3a 3 µM
# Description: (§1) SH-SY5Y human neuroblastoma cells (European Collection of Authenticated Cell Culture, Sigma Aldrich, 94030304-1VL) were cultured in RPMI media (ThermoFisher Scientific, Scoresby, Australia) supplemented with 15% foetal bovine serum and L-glutamine (1 mM) and passaged at approximately 80% confluency with TrypLE Express (Thermo Fisher, Australia). For fluorescence imaging, cells were plated on CellBIND (Corning) 384-well black-walled imaging plates at a density of 20,000–30,000 cells/well in complete media and cultured for 48 h at 37 °C/5% CO2.
# Briefly, SH-SY5Y cells were loaded with Calcium 4 no-wash dye (Molecular Devices) diluted in physiological salt solution (composition in mM: NaCl 140, D-glucose 11.5, KCl 5.9, MgCl2 1.4, NaH2PO4 1.2, NaHCO3 5, CaCl2 1.8, HEPES 10) for 30 min at 37 °C. A two-addition FLIPR^Tetra (Molecular Devices) protocol using the following settings was used to measure fluorescence responses: excitation 470–495 nm; emission 515–575 nm; excitation intensity 80%; excitation duration 0.8 s; gain 140; read interval 1/s; read number 300/addition. […] Raw fluorescence readings were converted to response over baseline using the analysis tool Screenworks 3.1.1.4 (Molecular Devices) and were expressed relative to the maximum increase in fluorescence of control responses and plotted using GraphPad Prism 9.3.1.
# NaV1.7 = test: FLIPR Ca2+ assay, inhibition of endogenous NaV1.7; assay type: cell-based, human; settings: for Ca2+ response relative to control response: 3 µM Xt3a pre-treatment, veratridine 4 μM/OD1 300 nM, over 300 s
# Description: as §1
# (§2) Briefly, SH-SY5Y cells were loaded with Calcium 4 no-wash dye (Molecular Devices) diluted in physiological salt solution (composition in mM: NaCl 140, D-glucose 11.5, KCl 5.9, MgCl2 1.4, NaH2PO4 1.2, NaHCO3 5, CaCl2 1.8, HEPES 10) for 30 min at 37 °C. A two-addition FLIPR^Tetra (Molecular Devices) protocol using the following settings was used to measure fluorescence responses: excitation 470–495 nm; emission 515–575 nm; excitation intensity 80%; excitation duration 0.8 s; gain 140; read interval 1/s; read number 300/addition. Responses mediated via endogenously expressed ion channels were elicited by addition of: choline (30 μM)/PNU-120596 (10 μM) for α7 nAChR-mediated responses; nicotine (30 μM) for α3β2/α3β4 nAChR-mediated responses; KCl (90 mM)/CaCl2 (5 mM) for CaV1.3-mediated responses; KCl (90 mM)/CaCl2 (5 mM) + nifedipine (10 μM) for CaV2.2-mediated responses; vertridine (70 μM) for NaV1.2-mediated responses; and veratridine (4 μM)/OD1 (300 nM) for NaV1.7-mediated responses. Raw fluorescence readings were converted to response over baseline using the analysis tool Screenworks 3.1.1.4 (Molecular Devices) and were expressed relative to the maximum increase in fluorescence of control responses and plotted using GraphPad Prism 9.3.1.
# (§3) In the cell-based FLIPR assays statistical analysis was performed using GraphPad Prism 9.3.1. Statistical significance was defined as p < 0.05, and determined by one-sample t-test assessing difference to the control value of 100%. In α7 nAChR, α3-containing nAChR, CaV1.3, CaV2.2, NaV1.2 and NaV1.7 channels (Supplementary Fig. 5B), with distribution (t) and degrees of freedom (df) being: t = 0.9683, df = 2 (α7); t = 1.338, df = 2 (α3); t = 1.775, df = 2 (NaV1.2); t = 1.478
# α7 nAChR = test: FLIPR Ca2+ assay, inhibition of endogenous α7 nAChR; assay type: cell-based, human; settings: for Ca2+ response relative to control response: 3 µM Xt3a pre-treatment, choline 30 μM/PNU-120596 10 μM, over 300 s
# Description: as §1, §2, §3
# NaV1.2 = test: FLIPR Ca2+ assay, inhibition of endogenous NaV1.2; assay type: cell-based, human; settings: for Ca2+ response relative to control response: 3 µM Xt3a pre-treatment, veratridine 70 μM, over 300 s
# Description: as §1, §2, §3
# ryanodine receptor [3] = molecular target: T1, ryanodine receptor; test: Single channel recording with Xt3a exposure, sheet "Figure 3B" (RyR isoform not given); assay type: biochemical
substance,measurement,setting,value
φ-Xibalbin3-Xt3a,rel Po,"ryanodine receptor [1]; Woearly after 10nM Xt3a vs 1 micoM Ca, CT1124n",1.432
same,rel Po,"ryanodine receptor [1]; Woearly after 10nM Xt3a vs 1 micoM Ca, CT1124p",0.937
same,rel Po,"ryanodine receptor [1]; Woearly after 10nM Xt3a vs 1 micoM Ca, CT1125p (r7)",0.4348
same,rel Po,"ryanodine receptor [1]; Woearly after 10nM Xt3a vs 1 micoM Ca, CT1125p (r12)",0.3976
same,rel Po,"ryanodine receptor [1]; Woearly after 10nM Xt3a vs 1 micoM Ca, CT1126n",1.917
same,rel Po,"ryanodine receptor [1]; Woearly after 10nM Xt3a vs 1 micoM Ca, CT1126p",0.1557
same,rel Po,"ryanodine receptor [1]; Woearly after 10nM Xt3a vs 1 micoM Ca, CT1129p",0.23
same,rel Po,"ryanodine receptor [1]; Woearly after 10nM Xt3a vs 1 micoM Ca, mean of 7 records",0.7864
same,rel Po,"ryanodine receptor [1]; Woearly after 1 microM Xt3a vs 1 micoM Ca, CT1134 n",4.4537
same,rel Po,"ryanodine receptor [1]; Woearly after 1 microM Xt3a vs 1 micoM Ca, CT1134 p",3.797
same,rel Po,"ryanodine receptor [1]; Woearly after 1 microM Xt3a vs 1 micoM Ca, CT1135 n",34.6466
same,rel Po,"ryanodine receptor [1]; Woearly after 1 microM Xt3a vs 1 micoM Ca, CT1136 n",1.926
same,rel Po,"ryanodine receptor [1]; Woearly after 1 microM Xt3a vs 1 micoM Ca, CT1136 p",1.125
same,rel Po,"ryanodine receptor [1]; Woearly after 1 microM Xt3a vs 1 micoM Ca, CT1137 n",1.615
same,rel Po,"ryanodine receptor [1]; Woearly after 1 microM Xt3a vs 1 micoM Ca, CT1137p",7.5
same,rel Po,"ryanodine receptor [1]; Woearly after 1 microM Xt3a vs 1 micoM Ca, CT1138n",1
same,rel Po,"ryanodine receptor [1]; Woearly after 1 microM Xt3a vs 1 micoM Ca, CT1138p",8.033
same,rel Po,"ryanodine receptor [1]; Woearly after 1 microM Xt3a vs 1 micoM Ca, mean (CT1135 p cell empty)",7.122
same,rel Po,"ryanodine receptor [1]; Wolate after 10nM Xt3a vs 1 micoM Ca, CT1124n",0.8317
same,rel Po,"ryanodine receptor [1]; Wolate after 10nM Xt3a vs 1 micoM Ca, CT1124p",12.1926
same,rel Po,"ryanodine receptor [1]; Wolate after 10nM Xt3a vs 1 micoM Ca, CT1125p (r7)",0.7826
same,rel Po,"ryanodine receptor [1]; Wolate after 10nM Xt3a vs 1 micoM Ca, CT1125p (r12)",0.9398
same,rel Po,"ryanodine receptor [1]; Wolate after 10nM Xt3a vs 1 micoM Ca, CT1126n",0.9549
same,rel Po,"ryanodine receptor [1]; Wolate after 10nM Xt3a vs 1 micoM Ca, CT1126p",1.131
same,rel Po,"ryanodine receptor [1]; Wolate after 10nM Xt3a vs 1 micoM Ca, CT1129p",0.13
same,rel Po,"ryanodine receptor [1]; Wolate after 10nM Xt3a vs 1 micoM Ca, mean of 7 records",2.423
same,rel Po,"ryanodine receptor [1]; Wolate after 1 microM Xt3a vs 1 micoM Ca, CT1134 n",20.9074
same,rel Po,"ryanodine receptor [1]; Wolate after 1 microM Xt3a vs 1 micoM Ca, CT1134 p",6.491
same,rel Po,"ryanodine receptor [1]; Wolate after 1 microM Xt3a vs 1 micoM Ca, CT1135 n",34.2069
same,rel Po,"ryanodine receptor [1]; Wolate after 1 microM Xt3a vs 1 micoM Ca, CT1135 p",0.02609
same,rel Po,"ryanodine receptor [1]; Wolate after 1 microM Xt3a vs 1 micoM Ca, CT1136 n",4.7037
same,rel Po,"ryanodine receptor [1]; Wolate after 1 microM Xt3a vs 1 micoM Ca, CT1136 p",2
same,rel Po,"ryanodine receptor [1]; Wolate after 1 microM Xt3a vs 1 micoM Ca, CT1137 n",0.6923
same,rel Po,"ryanodine receptor [1]; Wolate after 1 microM Xt3a vs 1 micoM Ca, CT1137p",0.75
same,rel Po,"ryanodine receptor [1]; Wolate after 1 microM Xt3a vs 1 micoM Ca, CT1138n",2.952
same,rel Po,"ryanodine receptor [1]; Wolate after 1 microM Xt3a vs 1 micoM Ca, CT1138p",2.133
same,rel Po,"ryanodine receptor [1]; Wolate after 1 microM Xt3a vs 1 micoM Ca, mean of 10 records",7.486
same,increase in intracellular Ca2+,[2],did not elicit an increase in intracellular Ca^2+; also recorded: does not elicit an increase in intracellular Ca2+ responses
same,Ca2+ response relative to control response,NaV1.7; replicate 1,99.4493%
same,Ca2+ response relative to control response,NaV1.7; replicate 2,100.583%
same,Ca2+ response relative to control response,NaV1.7; replicate 3,102.164%
same,inhibition of Ca2+ responses,NaV1.7; Xt3a 3 µM,did not inhibit Ca^2+ responses
same,Ca2+ response relative to control response,α7 nAChR; replicate 1,99.1155%
same,Ca2+ response relative to control response,α7 nAChR; replicate 2,100.788%
same,Ca2+ response relative to control response,α7 nAChR; replicate 3,96.222%
same,inhibition of Ca2+ responses,α7 nAChR; Xt3a 3 µM,did not inhibit Ca^2+ responses
same,Ca2+ response relative to control response,NaV1.2; replicate 1,91.9349%
same,Ca2+ response relative to control response,NaV1.2; replicate 2,100.571%
same,Ca2+ response relative to control response,NaV1.2; replicate 3,88.9832%
same,inhibition of Ca2+ responses,NaV1.2; Xt3a 3 µM,did not inhibit Ca^2+ responses
same,rel Po,"ryanodine receptor [3]; 1nM Xt3a vs 1 micoM Ca, CT1124n",0.8977
same,rel Po,"ryanodine receptor [3]; 1nM Xt3a vs 1 micoM Ca, CT1124p",0.6333
same,rel Po,"ryanodine receptor [3]; 1nM Xt3a vs 1 micoM Ca, CT1125p (r7)",0.7826
same,rel Po,"ryanodine receptor [3]; 1nM Xt3a vs 1 micoM Ca, CT1125p (r12)",0.3373
same,rel Po,"ryanodine receptor [3]; 1nM Xt3a vs 1 micoM Ca, CT1126n",1.286
same,rel Po,"ryanodine receptor [3]; 1nM Xt3a vs 1 micoM Ca, CT1126p",0.0123
same,rel Po,"ryanodine receptor [3]; 1nM Xt3a vs 1 micoM Ca, CT1129p",0.92
same,rel Po,"ryanodine receptor [3]; 1nM Xt3a vs 1 micoM Ca, mean of 7 records",0.6956
same,rel Po,"ryanodine receptor [3]; 10nM Xt3a vs 1 micoM Ca, CT1124n",0.4488
same,rel Po,"ryanodine receptor [3]; 10nM Xt3a vs 1 micoM Ca, CT1124p",0.3778
same,rel Po,"ryanodine receptor [3]; 10nM Xt3a vs 1 micoM Ca, CT1125p (r7)",1.957
same,rel Po,"ryanodine receptor [3]; 10nM Xt3a vs 1 micoM Ca, CT1125p (r12)",1.108
same,rel Po,"ryanodine receptor [3]; 10nM Xt3a vs 1 micoM Ca, CT1126n",2.128
same,rel Po,"ryanodine receptor [3]; 10nM Xt3a vs 1 micoM Ca, CT1126p",0.02049
same,rel Po,"ryanodine receptor [3]; 10nM Xt3a vs 1 micoM Ca, CT1129p",0.23
same,rel Po,"ryanodine receptor [3]; 10nM Xt3a vs 1 micoM Ca, mean of 7 records",0.8957
same,rel Po,"ryanodine receptor [3]; 100nM Xt3a vs 1 micoM Ca, CT1134 n",0.7716
same,rel Po,"ryanodine receptor [3]; 100nM Xt3a vs 1 micoM Ca, CT1134 p",1.135
same,rel Po,"ryanodine receptor [3]; 100nM Xt3a vs 1 micoM Ca, CT1135 n",0.4052
same,rel Po,"ryanodine receptor [3]; 100nM Xt3a vs 1 micoM Ca, CT1135 p",0.4783
same,rel Po,"ryanodine receptor [3]; 100nM Xt3a vs 1 micoM Ca, CT1136 n",1.741
same,rel Po,"ryanodine receptor [3]; 100nM Xt3a vs 1 micoM Ca, CT1136 p",0.75
same,rel Po,"ryanodine receptor [3]; 100nM Xt3a vs 1 micoM Ca, CT1137 n",0.9231
same,rel Po,"ryanodine receptor [3]; 100nM Xt3a vs 1 micoM Ca, CT1137p",4
same,rel Po,"ryanodine receptor [3]; 100nM Xt3a vs 1 micoM Ca, CT1138n",4.333
same,rel Po,"ryanodine receptor [3]; 100nM Xt3a vs 1 micoM Ca, CT1138p",1.4
same,rel Po,"ryanodine receptor [3]; 100nM Xt3a vs 1 micoM Ca, mean of 10 records",1.5937
same,rel Po,"ryanodine receptor [3]; 1 microM Xt3a vs 1 micoM Ca, CT1134 n",1.472
same,rel Po,"ryanodine receptor [3]; 1 microM Xt3a vs 1 micoM Ca, CT1134 p",4.143
same,rel Po,"ryanodine receptor [3]; 1 microM Xt3a vs 1 micoM Ca, CT1135 n",32.1638
same,rel Po,"ryanodine receptor [3]; 1 microM Xt3a vs 1 micoM Ca, CT1136 n",1
same,rel Po,"ryanodine receptor [3]; 1 microM Xt3a vs 1 micoM Ca, CT1136 p",0.625
same,rel Po,"ryanodine receptor [3]; 1 microM Xt3a vs 1 micoM Ca, CT1137 n",1.769
same,rel Po,"ryanodine receptor [3]; 1 microM Xt3a vs 1 micoM Ca, CT1137p",2
same,rel Po,"ryanodine receptor [3]; 1 microM Xt3a vs 1 micoM Ca, CT1138n",1.286
same,rel Po,"ryanodine receptor [3]; 1 microM Xt3a vs 1 micoM Ca, CT1138p",0.9
same,rel Po,"ryanodine receptor [3]; 1 microM Xt3a vs 1 micoM Ca, mean (CT1135 p cell empty)",5.04
